Results taken from ChEMBL document CHEMBL5518209, “Caltrop-like Small-Molecule Antidotes That Neutralize Unfractionated Heparin and Low-Molecular-Weight Heparin In Vivo” (J Med Chem, 2024).
Active and inactive are the calls of the source. The rule behind the calls is not given here.

Assays:
[1] = Binding affinity to dalteparin sodium in saline at pH 7.4 assessed as increase in fluorescence by measuring inflection point by fluorescence titration method
[2] = Binding affinity to dalteparin sodium in saline at pH 7.4 assessed as change in enthalpy by ITC analysis
[3] = Binding affinity to enoxaparin sodium in saline at pH 7.4 assessed as change in entropy by ITC analysis
Homo sapiens [4] = organism: Homo sapiens; assay: Reversal of anticoagulation of dalteparin sodium in human whole blood assessed as restoration of normal clotting time at 5 to 20 ug/ml incubated for 5 mins by thromboelastography; type: tissue-based; details: dose 5-20 µg/ml
Homo sapiens [5] = organism: Homo sapiens; assay: Reversal of anticoagulation of unfractionated heparin in human whole blood assessed as restoration of normal clotting strength at 2 to 20 ug/ml incubated for 5 mins by thromboelastography; type: tissue-based; details: dose 2-20 µg/ml
Bos taurus [6] = organism: Bos taurus; assay: Neutralization of dalteparin sodium in bovine plasma at 10 to 60 ug/ml by aPTT assay; type: cell-free; details: dose 10-60 µg/ml
[7] = Binding affinity to enoxaparin sodium in saline at pH 7.4 assessed as change in gibbs free energy by ITC analysis
Homo sapiens [8] = organism: Homo sapiens; assay: Reversal of anticoagulation of unfractionated heparin in human whole blood assessed as restoration of normal clotting time at 5 to 20 ug/ml incubated for 5 mins by thromboelastography; type: tissue-based; details: dose 5-20 µg/ml
[9] = Toxicity in Sprague-Dawley rat assessed as abnormal index of microalbumin at 25 mg/kg, iv measured after 5 hrs; type: organism-based; details: in vivo
Homo sapiens [10] = organism: Homo sapiens; assay: Neutralization of dalteparin sodium in human poor platelet plasma at 10 to 50 ug/ml by aPTT assay relative to control; type: cell-free; details: dose 10-50 µg/ml
Bos taurus [11] = organism: Bos taurus; assay: Neutralization of enoxaparin sodium in bovine plasma at 10 to 60 ug/ml by aPTT assay; type: cell-free; details: dose 10-60 µg/ml
Bos taurus [12] = organism: Bos taurus; assay: Neutralization of unfractionated heparin in bovine plasma at 10 to 60 ug/ml by aPTT assay; type: cell-free; details: dose 10-60 µg/ml
Homo sapiens [13] = organism: Homo sapiens; assay: Neutralization of nadroparin calcium in human poor platelet plasma at 10 to 50 ug/ml by aPTT assay relative to control; type: cell-free; details: dose 10-50 µg/ml
[14] = Toxicity in ICR mouse assessed as effect on animal activity at 25 mg/kg, iv administered as single dose through tail vein and measured on day 2; type: organism-based; details: in vivo, 48 h, time 2 day
Homo sapiens [15] = organism: Homo sapiens; assay: Reversal of anticoagulation of dalteparin sodium in human whole blood assessed as restoration of normal coagulation rate at 5 to 20 ug/ml incubated for 5 mins by thromboelastography; type: tissue-based; details: dose 5-20 µg/ml
Erythrocyte = assay: Hemolytic activity in human red blood cells at 512 ug/ml; type: toxicity, cell-based; details: dose 512 µg/ml
Rattus norvegicus [16] = assay: (§1) In vivo antagonism of enoxaparin sodium induced anticoagulation in Sprague-Dawley rat assessed as restoration of normal clotting strength at 1 mg/kg, iv administered via tail vein pretreated with enoxaparin sodium for 5 mins followed by compound addition and measured after 2.5 mins by thromboelastography; type: functional, organism-based
[17] = Binding affinity to nadroparin calcium in saline at pH 7.4 assessed as change in entropy by ITC analysis
[18] = Acute toxicity in iv dosed ICR mouse assessed as maximum tolerated dose measured after 7 days; type: organism-based; details: in vivo, time 7 day
Mus musculus [19] = assay: In vivo antagonism of unfractionated heparin induced anticoagulation in ICR mouse assessed as bleeding time at 0.4 mg/kg, iv administered via tail vein pretreated with heparin for 5 mins followed by compound addition and measured after 5 mins (reference value: 96.5 +/- 20.6 min); type: functional
Bos taurus [20] = organism: Bos taurus; assay: Neutralization of nadroparin calcium in bovine plasma at 10 to 60 ug/ml by aPTT assay; type: cell-free; details: dose 10-60 µg/ml
[21] = Toxicity in ICR mouse assessed as histopathological changes in lungs at 25 mg/kg, iv administered as single dose through tail vein and measured after 14 days by H and E staining based analysis; type: organism-based, Lung; details: in vivo, 336 h, time 14 day
[22] = Toxicity in ICR mouse assessed as histopathological changes in spleen at 25 mg/kg, iv administered as single dose through tail vein and measured after 14 days by H and E staining based analysis; type: organism-based; details: in vivo, 336 h, time 14 day
[23] = Binding affinity to nadroparin calcium in saline at pH 7.4 assessed as change in gibbs free energy by ITC analysis
Homo sapiens [24] = organism: Homo sapiens; assay: Reversal of anticoagulation of unfractionated heparin in human whole blood assessed as restoration of normal coagulation rate at 5 to 20 ug/ml incubated for 5 mins by thromboelastography; type: tissue-based; details: dose 5-20 µg/ml
[25] = Toxicity in ICR mouse assessed as histopathological changes in heart at 25 mg/kg, iv administered as single dose through tail vein and measured after 14 days by H and E staining based analysis; type: organism-based; details: in vivo, 336 h, time 14 day
Homo sapiens [26] = organism: Homo sapiens; assay: Reversal of anticoagulation of enoxaparin sodium in human whole blood assessed as restoration of normal clotting strength at 2 to 20 ug/ml incubated for 5 mins by thromboelastography; type: tissue-based; details: dose 2-20 µg/ml
Rattus norvegicus [27] = assay: as §1, with “time” for “strength”; type: functional, organism-based
Blood = assay: Ex vivo neutralization of dalteparin sodium in Sprague-Dawley rat whole blood assessed as restoration of blood coagulation at 10 to 15 ug/ml incubated for 15 mins; type: functional, tissue-based; details: dose 10-15 µg/ml
Homo sapiens [28] = organism: Homo sapiens; assay: Neutralization of unfractionated heparin in human poor platelet plasma at 10 to 50 ug/ml by aPTT assay relative to control; type: cell-free; details: dose 10-50 µg/ml
[29] = Cytotoxicity against human MCF7 cells assessed as cell viability at 300 ug/ml incubated for 24 hrs by CCK-8 assay relative to control; type: toxicity, cell-based; details: at 300 µg/mL, read-out: Activity
Homo sapiens [30] = organism: Homo sapiens; assay: Reversal of anticoagulation of nadroparin calcium in human whole blood assessed as restoration of normal clotting time at 5 to 20 ug/ml incubated for 5 mins by thromboelastography; type: tissue-based; details: dose 5-20 µg/ml
[31] = Binding affinity to nadroparin calcium in saline at pH 7.4 assessed as binding constant by ITC analysis
[32] = Binding affinity to dalteparin sodium in saline at pH 7.4 assessed as change in entropy by ITC analysis
Mus musculus [33] = assay: In vivo antagonism of dalteparin sodium induced anticoagulation in ICR mouse assessed as blood loss at 0.4 mg/kg, iv administered via tail vein pretreated with heparin for 5 mins followed by compound addition and measured after 5 mins (reference value: 324.4 +/- 139.5 microL); type: functional
[34] = Toxicity in ICR mouse assessed as effect on animal activity at 0.4 to 25 mg/kg, iv administered as single dose through tail vein and measured after 3 to 14 days; type: organism-based; details: in vivo, dose lower 0.4 mg/kg, time lower 3 day, dose upper 25 mg/kg, time upper 14 day
[35] = Binding affinity to enoxaparin sodium in saline at pH 7.4 assessed as increase in fluorescence by measuring inflection point by fluorescence titration method
[36] = Toxicity in iv dosed ICR mouse assessed as maximum tolerated dose administered through tail vein; type: organism-based; details: in vivo
[37] = Binding affinity to enoxaparin sodium in saline at pH 7.4 assessed as binding constant by ITC analysis
[38] = Binding affinity to dalteparin sodium in saline at pH 7.4 assessed as binding constant by ITC analysis
Homo sapiens [39] = organism: Homo sapiens; assay: Neutralization of enoxaparin sodium in human poor platelet plasma at 10 to 50 ug/ml by aPTT assay relative to control; type: cell-free; details: dose 10-50 µg/ml

## NCCOc1ccc(-c2cc[n+](Cc3ccc(C(c4ccc(C[n+]5ccc(-c6ccc(OCCN)c(OCCN)c6)cc5)cc4)(c4ccc(C[n+]5ccc(-c6ccc(OCCN)c(OCCN)c6)cc5)cc4)c4ccc(C[n+]5ccc(-c6ccc(OCCN)c(OCCN)c6)cc5)cc4)cc3)cc2)cc1OCCN.[Cl-].[Cl-].[Cl-].[Cl-]
[1]
  IP: 2.6
[2]
  deltaH: -5.07 kcal/mol
[3]
  -TdeltaS: -2.05 kcal/mol
Homo sapiens [4]
  Activity: Active
Homo sapiens [5]
  Activity: Active
Bos taurus [6]
  Activity: Active
[7]
  deltaG: -9.91 kcal/mol
Homo sapiens [8]
  Activity: Active
[9]
  Activity: Toxic
Homo sapiens [10]
  Activity: 99%
Bos taurus [11]
  Activity: Active
Bos taurus [12]
  Activity: Active
Homo sapiens [13]
  Activity: 99%
[14]
  Activity: Toxic
Homo sapiens [15]
  Activity: Active
Erythrocyte
  Activity: Non-Toxic
Rattus norvegicus [16]
  Activity: Active
[17]
  -TdeltaS: -3.4 kcal/mol
[18]
  MTD at 168 h: 25 mg/kg
Mus musculus [19]
  Time: 22.7 min
Bos taurus [20]
  Activity: Active
[21]
  Activity: Non-Toxic
[22]
  Activity: Non-Toxic
[23]
  deltaG: -9.92 kcal/mol
Homo sapiens [24]
  Activity: Active
[25]
  Activity: Non-Toxic
Homo sapiens [26]
  Activity: Active
Rattus norvegicus [27]
  Activity: Active
Blood
  Activity: Active
Homo sapiens [28]
  Activity: 100%
[29]
  viability at 24 h, 300 ug/ml: > 80%
Homo sapiens [30]
  Activity: Active
[31]
  Ka: 1.87e+07 M⁻¹
[32]
  -TdeltaS: -5.41 kcal/mol
Mus musculus [33]
  Activity: 26 µL
[34]
  Activity: Non-Toxic
[35]
  IP: 2.2
[36]
  MTD: 25 mg/kg
[37]
  Ka: 1.79e+07 M⁻¹
[38]
  Ka: 4.78e+07 M⁻¹
Homo sapiens [39]
  Activity: 97%
